Patent publication US20140045826A1, “METHODS AND COMPOSITIONS FOR TREATING NEURODEGENERATIVE DISEASES” (ARIAD PHARMACEUTICALS, INC., priority 2011, published 2014)

How the values were obtained:
AXL = molecular target: T1, AXL (Homo sapiens, UniProt P30530); assay: in vitro kinase assay; assay type: biochemical
T1 sequence (P30530 26-894): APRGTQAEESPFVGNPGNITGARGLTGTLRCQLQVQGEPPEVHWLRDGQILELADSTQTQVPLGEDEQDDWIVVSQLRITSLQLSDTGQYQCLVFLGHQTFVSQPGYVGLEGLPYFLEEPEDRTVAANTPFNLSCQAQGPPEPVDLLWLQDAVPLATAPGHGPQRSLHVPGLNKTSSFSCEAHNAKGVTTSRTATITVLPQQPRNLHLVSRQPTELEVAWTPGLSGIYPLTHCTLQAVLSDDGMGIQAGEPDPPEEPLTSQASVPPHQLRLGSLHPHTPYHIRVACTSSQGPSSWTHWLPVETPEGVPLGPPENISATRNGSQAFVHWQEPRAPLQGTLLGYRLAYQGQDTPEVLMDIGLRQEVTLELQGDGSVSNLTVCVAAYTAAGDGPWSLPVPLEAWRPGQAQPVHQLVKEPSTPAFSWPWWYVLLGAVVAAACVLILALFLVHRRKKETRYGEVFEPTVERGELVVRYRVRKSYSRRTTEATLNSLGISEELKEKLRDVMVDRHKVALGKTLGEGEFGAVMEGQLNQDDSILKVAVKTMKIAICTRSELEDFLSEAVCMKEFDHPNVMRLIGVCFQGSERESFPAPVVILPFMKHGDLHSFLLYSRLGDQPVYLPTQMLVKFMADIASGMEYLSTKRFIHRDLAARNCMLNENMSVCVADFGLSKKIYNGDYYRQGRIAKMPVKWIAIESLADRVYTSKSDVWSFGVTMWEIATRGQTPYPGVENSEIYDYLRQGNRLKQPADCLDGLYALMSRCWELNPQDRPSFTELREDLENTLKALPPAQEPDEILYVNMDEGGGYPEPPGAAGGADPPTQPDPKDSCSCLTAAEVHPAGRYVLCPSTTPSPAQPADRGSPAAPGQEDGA

ROS = ROS (Homo sapiens, UniProt P08922); assay: in vitro kinase assay; assay type: biochemical
Aurora C = molecular target: T2, Aurora C (Homo sapiens, UniProt Q9UQB9); assay: in vitro kinase assay; assay type: biochemical
T2 sequence (Q9UQB9 1-309): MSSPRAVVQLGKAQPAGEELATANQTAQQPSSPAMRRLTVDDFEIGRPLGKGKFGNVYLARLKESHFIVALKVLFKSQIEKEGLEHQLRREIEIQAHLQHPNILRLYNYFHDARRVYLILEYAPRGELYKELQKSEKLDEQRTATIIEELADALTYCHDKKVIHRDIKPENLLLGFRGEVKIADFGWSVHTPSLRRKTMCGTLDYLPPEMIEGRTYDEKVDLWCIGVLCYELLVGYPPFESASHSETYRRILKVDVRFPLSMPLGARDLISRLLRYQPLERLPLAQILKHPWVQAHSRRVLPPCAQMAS

ALK = ALK (Homo sapiens, UniProt Q9UM73); assay: in vitro kinase assay; assay type: biochemical
in vivo = conditions: rat, plasma, po, 5 mg/kg
TYK1 = TYK1 (Homo sapiens, UniProt P29376); assay: in vitro kinase assay; assay type: biochemical
PKC8 = assay: in vitro kinase assay; assay type: biochemical
IRR = IRR (Homo sapiens, UniProt P14616); assay: in vitro kinase assay; assay type: biochemical
[1] = phase 1 clinical trial, safety and tolerability
mTOR = mTOR (Homo sapiens, UniProt P42345); assay: in vitro kinase assay; assay type: biochemical
ITK = molecular target: T3, ITK (Homo sapiens, UniProt Q08881); assay: in vitro kinase assay; assay type: biochemical
T3 sequence (Q08881 1-620): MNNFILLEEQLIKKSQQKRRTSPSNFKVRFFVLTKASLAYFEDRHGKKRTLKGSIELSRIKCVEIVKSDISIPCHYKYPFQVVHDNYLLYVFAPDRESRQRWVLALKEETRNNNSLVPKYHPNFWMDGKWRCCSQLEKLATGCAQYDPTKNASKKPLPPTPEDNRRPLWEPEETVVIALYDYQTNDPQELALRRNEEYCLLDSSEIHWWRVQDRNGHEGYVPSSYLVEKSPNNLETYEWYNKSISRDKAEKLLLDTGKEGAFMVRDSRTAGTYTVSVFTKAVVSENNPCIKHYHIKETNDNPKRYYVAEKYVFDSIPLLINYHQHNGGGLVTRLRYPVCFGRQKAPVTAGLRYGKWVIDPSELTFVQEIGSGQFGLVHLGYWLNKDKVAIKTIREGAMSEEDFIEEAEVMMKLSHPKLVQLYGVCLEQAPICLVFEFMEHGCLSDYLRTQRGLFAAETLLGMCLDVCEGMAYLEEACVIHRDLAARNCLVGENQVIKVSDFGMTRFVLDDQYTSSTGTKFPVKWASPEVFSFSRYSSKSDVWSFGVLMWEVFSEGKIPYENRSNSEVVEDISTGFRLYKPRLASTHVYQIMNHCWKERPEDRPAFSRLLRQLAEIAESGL

PGP efflux pump = PGP efflux pump (Homo sapiens, UniProt P08183); assay: substrate for the PGP efflux pump
ZAP70 = molecular target: T4, ZAP70 (Homo sapiens, UniProt P43403); assay: in vitro kinase assay; assay type: biochemical
T4 sequence (P43403 1-619): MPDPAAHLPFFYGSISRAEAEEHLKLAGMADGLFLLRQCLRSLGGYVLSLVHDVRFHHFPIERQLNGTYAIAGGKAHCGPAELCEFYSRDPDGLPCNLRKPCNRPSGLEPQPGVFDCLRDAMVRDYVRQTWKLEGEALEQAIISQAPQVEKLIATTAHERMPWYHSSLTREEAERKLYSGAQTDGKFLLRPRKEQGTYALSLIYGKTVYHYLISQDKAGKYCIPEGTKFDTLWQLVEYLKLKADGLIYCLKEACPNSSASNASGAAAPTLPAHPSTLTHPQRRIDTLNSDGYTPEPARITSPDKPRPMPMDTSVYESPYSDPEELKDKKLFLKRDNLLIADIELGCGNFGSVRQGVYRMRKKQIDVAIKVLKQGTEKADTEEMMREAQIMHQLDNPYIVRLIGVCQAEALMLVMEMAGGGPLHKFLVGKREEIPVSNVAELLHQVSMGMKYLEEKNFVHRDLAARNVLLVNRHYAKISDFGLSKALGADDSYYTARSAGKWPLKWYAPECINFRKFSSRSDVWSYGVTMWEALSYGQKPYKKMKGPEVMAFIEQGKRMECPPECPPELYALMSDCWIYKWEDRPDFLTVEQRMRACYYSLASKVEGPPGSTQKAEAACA

CTK = molecular target: T5, CTK (Homo sapiens, UniProt P42679); assay: in vitro kinase assay; assay type: biochemical
T5 sequence (P42679 1-507): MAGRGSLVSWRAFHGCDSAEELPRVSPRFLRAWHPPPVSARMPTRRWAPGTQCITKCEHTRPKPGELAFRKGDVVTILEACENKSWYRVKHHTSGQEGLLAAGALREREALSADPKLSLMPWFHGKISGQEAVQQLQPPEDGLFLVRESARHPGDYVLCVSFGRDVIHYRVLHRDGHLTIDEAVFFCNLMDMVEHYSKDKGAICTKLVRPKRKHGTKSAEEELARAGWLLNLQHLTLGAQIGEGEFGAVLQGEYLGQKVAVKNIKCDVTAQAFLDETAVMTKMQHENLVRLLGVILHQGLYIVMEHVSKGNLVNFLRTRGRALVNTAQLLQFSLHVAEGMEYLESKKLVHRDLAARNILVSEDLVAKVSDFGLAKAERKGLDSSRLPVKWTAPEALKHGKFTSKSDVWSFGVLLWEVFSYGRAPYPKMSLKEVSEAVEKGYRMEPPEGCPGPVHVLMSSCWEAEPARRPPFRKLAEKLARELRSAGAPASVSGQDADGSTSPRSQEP

[2] = mice and humans; cited from earlier work

Chain of IRR (P14616 27-1297): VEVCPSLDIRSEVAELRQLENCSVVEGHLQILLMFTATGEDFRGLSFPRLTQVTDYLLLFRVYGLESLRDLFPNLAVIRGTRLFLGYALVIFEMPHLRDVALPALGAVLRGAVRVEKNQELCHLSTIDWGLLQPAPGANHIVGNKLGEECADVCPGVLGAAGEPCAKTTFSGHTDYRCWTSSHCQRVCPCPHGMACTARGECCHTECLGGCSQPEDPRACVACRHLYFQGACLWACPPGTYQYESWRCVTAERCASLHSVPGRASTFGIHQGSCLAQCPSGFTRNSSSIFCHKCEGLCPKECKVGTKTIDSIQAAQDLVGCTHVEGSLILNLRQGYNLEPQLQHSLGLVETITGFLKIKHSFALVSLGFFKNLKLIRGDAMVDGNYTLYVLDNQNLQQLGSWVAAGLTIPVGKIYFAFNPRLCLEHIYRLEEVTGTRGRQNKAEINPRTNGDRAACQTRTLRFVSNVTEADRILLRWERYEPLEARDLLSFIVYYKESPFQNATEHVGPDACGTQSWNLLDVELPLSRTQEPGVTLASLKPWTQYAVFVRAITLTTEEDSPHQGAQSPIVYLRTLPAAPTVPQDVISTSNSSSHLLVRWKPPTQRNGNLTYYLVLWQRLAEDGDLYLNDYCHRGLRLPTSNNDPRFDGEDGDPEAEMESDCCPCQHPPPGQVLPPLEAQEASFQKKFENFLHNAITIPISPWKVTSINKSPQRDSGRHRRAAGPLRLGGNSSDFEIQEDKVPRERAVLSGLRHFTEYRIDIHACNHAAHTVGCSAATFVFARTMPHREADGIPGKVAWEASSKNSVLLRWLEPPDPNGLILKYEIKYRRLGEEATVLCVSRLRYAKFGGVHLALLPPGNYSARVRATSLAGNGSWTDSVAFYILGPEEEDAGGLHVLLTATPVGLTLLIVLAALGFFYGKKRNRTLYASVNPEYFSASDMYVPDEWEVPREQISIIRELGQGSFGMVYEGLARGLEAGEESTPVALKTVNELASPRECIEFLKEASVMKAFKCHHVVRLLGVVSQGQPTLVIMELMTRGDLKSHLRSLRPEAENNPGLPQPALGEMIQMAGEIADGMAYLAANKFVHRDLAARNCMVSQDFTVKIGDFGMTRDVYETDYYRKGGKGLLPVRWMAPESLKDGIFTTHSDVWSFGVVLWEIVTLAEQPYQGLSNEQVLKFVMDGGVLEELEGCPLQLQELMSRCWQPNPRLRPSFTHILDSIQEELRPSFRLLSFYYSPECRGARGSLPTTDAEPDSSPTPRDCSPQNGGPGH
Chain of ALK (Q9UM73 19-1620): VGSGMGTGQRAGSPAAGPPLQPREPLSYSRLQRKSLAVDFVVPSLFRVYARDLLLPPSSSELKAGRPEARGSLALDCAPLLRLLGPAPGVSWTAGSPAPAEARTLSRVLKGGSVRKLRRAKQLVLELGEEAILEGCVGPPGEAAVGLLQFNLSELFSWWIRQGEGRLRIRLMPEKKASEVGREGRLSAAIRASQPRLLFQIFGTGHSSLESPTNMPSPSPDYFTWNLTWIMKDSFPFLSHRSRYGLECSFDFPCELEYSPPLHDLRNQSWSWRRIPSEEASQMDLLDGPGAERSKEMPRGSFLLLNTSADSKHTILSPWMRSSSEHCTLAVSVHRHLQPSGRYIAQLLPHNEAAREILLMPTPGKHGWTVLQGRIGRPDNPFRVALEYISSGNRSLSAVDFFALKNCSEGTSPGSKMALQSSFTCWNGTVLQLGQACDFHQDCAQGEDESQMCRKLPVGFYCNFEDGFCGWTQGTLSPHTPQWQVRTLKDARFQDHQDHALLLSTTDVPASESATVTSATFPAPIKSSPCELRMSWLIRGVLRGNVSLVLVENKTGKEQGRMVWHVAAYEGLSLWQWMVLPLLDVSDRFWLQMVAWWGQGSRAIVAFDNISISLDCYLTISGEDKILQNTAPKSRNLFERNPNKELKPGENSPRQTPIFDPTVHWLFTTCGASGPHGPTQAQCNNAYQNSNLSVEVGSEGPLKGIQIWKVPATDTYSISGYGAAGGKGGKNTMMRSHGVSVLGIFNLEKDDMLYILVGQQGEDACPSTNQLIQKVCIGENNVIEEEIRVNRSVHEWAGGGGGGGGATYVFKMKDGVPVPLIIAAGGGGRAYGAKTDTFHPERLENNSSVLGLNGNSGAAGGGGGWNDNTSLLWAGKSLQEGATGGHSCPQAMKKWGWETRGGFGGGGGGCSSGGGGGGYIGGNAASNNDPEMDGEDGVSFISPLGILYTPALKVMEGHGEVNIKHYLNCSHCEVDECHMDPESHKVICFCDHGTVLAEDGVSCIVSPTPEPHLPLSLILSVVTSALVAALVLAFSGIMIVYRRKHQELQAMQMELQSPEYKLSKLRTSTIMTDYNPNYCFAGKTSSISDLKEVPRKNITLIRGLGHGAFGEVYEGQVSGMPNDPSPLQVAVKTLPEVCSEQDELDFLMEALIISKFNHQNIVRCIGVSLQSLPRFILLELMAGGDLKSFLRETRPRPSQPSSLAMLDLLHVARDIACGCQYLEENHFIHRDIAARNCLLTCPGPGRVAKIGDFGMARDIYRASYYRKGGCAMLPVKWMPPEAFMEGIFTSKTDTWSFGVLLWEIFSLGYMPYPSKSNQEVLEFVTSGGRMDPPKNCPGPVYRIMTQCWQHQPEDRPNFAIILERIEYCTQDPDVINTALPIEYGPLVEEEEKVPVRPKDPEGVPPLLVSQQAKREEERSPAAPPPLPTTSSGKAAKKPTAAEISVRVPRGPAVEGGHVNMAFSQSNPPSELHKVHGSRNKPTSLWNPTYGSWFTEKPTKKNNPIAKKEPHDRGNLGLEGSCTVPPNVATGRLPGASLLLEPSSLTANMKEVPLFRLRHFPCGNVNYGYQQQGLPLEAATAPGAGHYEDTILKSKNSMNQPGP
Chain of PGP efflux pump (P08183 whole entry): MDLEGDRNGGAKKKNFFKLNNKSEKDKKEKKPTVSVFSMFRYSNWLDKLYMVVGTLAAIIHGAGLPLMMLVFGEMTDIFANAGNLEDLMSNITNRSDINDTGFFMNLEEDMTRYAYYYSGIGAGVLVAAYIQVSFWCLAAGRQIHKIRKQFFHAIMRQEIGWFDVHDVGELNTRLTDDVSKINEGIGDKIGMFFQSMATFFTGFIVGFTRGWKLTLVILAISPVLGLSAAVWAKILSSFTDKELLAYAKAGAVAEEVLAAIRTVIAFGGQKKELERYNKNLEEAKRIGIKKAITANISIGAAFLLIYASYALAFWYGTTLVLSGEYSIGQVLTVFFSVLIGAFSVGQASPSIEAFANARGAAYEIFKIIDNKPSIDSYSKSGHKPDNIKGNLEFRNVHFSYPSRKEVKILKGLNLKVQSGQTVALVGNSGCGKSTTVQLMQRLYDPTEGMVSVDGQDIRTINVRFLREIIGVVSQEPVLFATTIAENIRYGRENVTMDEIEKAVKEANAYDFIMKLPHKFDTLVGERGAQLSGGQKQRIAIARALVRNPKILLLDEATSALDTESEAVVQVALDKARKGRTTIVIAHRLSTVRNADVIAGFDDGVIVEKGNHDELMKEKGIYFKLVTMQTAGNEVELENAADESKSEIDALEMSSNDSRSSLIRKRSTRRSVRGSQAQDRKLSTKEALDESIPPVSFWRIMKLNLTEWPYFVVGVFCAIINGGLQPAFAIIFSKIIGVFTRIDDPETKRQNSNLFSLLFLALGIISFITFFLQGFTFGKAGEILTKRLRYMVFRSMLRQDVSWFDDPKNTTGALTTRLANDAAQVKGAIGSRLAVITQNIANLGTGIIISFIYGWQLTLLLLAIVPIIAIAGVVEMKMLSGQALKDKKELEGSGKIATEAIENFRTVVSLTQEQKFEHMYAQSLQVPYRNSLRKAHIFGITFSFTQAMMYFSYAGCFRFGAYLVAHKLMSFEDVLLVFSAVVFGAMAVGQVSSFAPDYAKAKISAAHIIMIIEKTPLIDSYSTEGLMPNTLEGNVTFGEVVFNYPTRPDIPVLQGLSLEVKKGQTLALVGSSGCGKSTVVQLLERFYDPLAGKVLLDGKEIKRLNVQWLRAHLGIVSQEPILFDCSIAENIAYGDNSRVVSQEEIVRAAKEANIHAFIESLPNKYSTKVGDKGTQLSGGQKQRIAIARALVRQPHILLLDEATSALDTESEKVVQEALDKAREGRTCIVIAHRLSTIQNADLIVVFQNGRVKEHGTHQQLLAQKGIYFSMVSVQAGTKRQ
Chain of TYK1 (P29376 17-864, species assumed): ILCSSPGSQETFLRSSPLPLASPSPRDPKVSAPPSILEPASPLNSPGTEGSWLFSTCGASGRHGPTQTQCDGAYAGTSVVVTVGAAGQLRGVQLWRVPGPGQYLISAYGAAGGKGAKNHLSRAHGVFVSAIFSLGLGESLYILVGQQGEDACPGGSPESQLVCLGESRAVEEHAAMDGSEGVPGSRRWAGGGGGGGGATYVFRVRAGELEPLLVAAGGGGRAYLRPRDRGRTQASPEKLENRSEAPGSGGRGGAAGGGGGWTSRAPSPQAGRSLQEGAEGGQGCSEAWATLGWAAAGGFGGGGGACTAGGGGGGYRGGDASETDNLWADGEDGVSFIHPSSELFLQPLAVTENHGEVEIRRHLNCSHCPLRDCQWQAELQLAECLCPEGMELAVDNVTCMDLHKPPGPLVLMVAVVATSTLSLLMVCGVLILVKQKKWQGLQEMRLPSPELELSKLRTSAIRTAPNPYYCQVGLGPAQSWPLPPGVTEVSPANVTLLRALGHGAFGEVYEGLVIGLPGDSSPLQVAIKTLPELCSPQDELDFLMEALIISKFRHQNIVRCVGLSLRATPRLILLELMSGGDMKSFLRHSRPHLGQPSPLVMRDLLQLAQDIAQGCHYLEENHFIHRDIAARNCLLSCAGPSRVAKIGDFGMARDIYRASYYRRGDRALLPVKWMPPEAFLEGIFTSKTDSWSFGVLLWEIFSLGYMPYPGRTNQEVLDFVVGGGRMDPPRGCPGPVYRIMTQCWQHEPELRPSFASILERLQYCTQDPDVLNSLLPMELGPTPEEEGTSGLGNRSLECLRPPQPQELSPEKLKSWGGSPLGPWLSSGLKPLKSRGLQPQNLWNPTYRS

## Cc1ccc(C(=O)Nc2ccc(CN3CCN(C)CC3)c(C(F)(F)F)c2)cc1C#Cc1cnc2cccnn12 [ponatinib, 3-(Imidazo[1,2-b]pyridazin-3-ylethynyl)-4-methyl-N-(4-((4-methylpiperazin-1-yl)methyl)-3-(trifluoromethyl)phenyl)benzamide]
AXL
  IC50: > 1 µM
ROS
  IC50: > 1 µM
Aurora C
  IC50: > 1 µM
ALK
  IC50: > 1 µM
In vivo
  Cmax: 0.175 µg/mL
TYK1
  IC50: > 1 µM
PKC8
  IC50: > 1 µM
IRR
  IC50: > 1 µM
[1]; 45 mg cohort
  dose limiting toxicities (DLTs): a reversible rash was seen with one patient
[1]; 60 mg cohort
  dose limiting toxicities (DLTs): four patients developed reversible pancreatic related DLT (pancreatitis)
[1]; 2 to 30 mg cohorts
  dose limiting toxicities (DLTs): no dose limiting toxicities (DLTs) were observed
[1]; patients with refractory hematological cancers, oral, dose escalation 2-60 mg
  maximum tolerated dose (MTD): 45 mg
[1]; phase 1 patients
  drug-related adverse events of any grade: anemia: 12%
  drug-related adverse events of any grade: lipase increase: 12%
  drug-related adverse events of any grade: nausea: 12%
  drug-related adverse events of any grade: rash: 12%
  drug-related adverse events of any grade: thrombocytopenia: 25%
[1]; phase 1 study conclusion
  tolerability: well tolerated
mTOR
  IC50: > 1 µM
ITK
  IC50: > 1 µM
PGP efflux pump
  substrate for the PGP efflux pump: poor substrate
ZAP70
  IC50: > 1 µM
CTK
  IC50: > 1 µM

## Cc1ccc(NC(=O)c2ccc(CN3CCN(C)CC3)cc2)cc1Nc1nccc(-c2cccnc2)n1 [STI-571]
[2]
  penetration of the blood-brain barrier: poor penetration of the blood-brain barrier
